We go through twelve compounds from PubChem BioAssay AID248 (DTP/NCI, 2004).

This assay deals with L1210 leukemia ip in BDF1 mice, survival T/C. The assay is described as follows: NCI In Vivo Anticancer Drug Screen. Data for tumor model L1210 Leukemia (intraperitoneal) in B6D2F1 (BDF1) mice. The following applies: endpoint: mean survival time, higher = longer survival. Summed up:
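Read-out is survival time, reported as the treated-group measurement over the vehicle-control measurement.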

Setting [1] is: dose: 100.0 mg/kg/injection, schedule: Q04DX003 (ip), vehicle: saline.
Where [2] appears, read: dose: 200.0 mg/kg/injection, schedule: Q04DX003 (ip), vehicle: saline.
Where [3] appears, read: dose: 400.0 mg/kg/injection, schedule: Q04DX003 (ip), vehicle: saline.
The mark [4] stands for this setting: dose: 50.0 mg/kg/injection, schedule: Q01DX001 (ip), vehicle: carboxymethylcellulose (CMC).
[5] abbreviates: dose: 100.0 mg/kg/injection, schedule: Q01DX001 (ip), vehicle: saline.
[6] abbreviates: dose: 200.0 mg/kg/injection, schedule: Q01DX001 (ip), vehicle: saline.
Setting [7] is: dose: 400.0 mg/kg/injection, schedule: Q01DX001 (ip), vehicle: saline.

Where “and” joins values, the source holds several entries; their conditions need not be identical. Equal entries are not always repeated. Inconclusive results and toxic doses are left out.

Consider `CCOC(=O)C(Br)C(Br)c1ccccc1` (stereo unspecified), for which the T/C is 103 % of control under setting [1], 108 % of control under setting [2] and 98 % of control under setting [3].

Consider `O=NN(CCCl)C(=O)N[C@@H]1CCCC[C@H]1NC(=O)N(CCCl)N=O`, for which the T/C reads like this: (dose: 25.0 mg/kg/injection, schedule: Q01DX001 (ip), vehicle: carboxymethylcellulose (CMC)) 180 % of control; (dose: 37.5 mg/kg/injection, schedule: Q01DX001 (ip), vehicle: carboxymethylcellulose (CMC)) 165 % of control; under setting [4], 215 % of control; (dose: 75.0 mg/kg/injection, schedule: Q01DX001 (ip), vehicle: carboxymethylcellulose (CMC)) 260 % of control; under setting [5], 233 % of control; (dose: 150.0 mg/kg/injection, schedule: Q01DX001 (ip), vehicle: carboxymethylcellulose (CMC)) 308 % of control. Moreover, the T/C by setting is: under setting [6], 106 % of control; (dose: 300.0 mg/kg/injection, schedule: Q01DX001 (ip), vehicle: saline) 89 % of control.

As for `COc1cccc(/C=N/N=C(N)N)c1OC`, under “dose: 62.5 mg/kg/injection, schedule: Q01DX Z (ip), vehicle: saline”, the T/C is 101 % of control.

As for `OC1CCCCC1Br` (stereo unspecified), the T/C is 96 % of control (dose: 50.0 mg/kg/injection, schedule: Q01DX001 (ip), vehicle: saline); 98 % of control under setting [5]; 113 % of control under setting [6]; 102 % of control under setting [7].

Take `CN1CCCCCC1=O`: the T/C by setting is: under setting [1], 100 % of control; under setting [2], 111 % of control; under setting [3], 101 % of control.

In the case of `COc1cc([C@@H]2c3cc4c(cc3[C@H](O)[C@H]3COC(=O)[C@@H]23)OCO4)cc(OC)c1OC`, the T/C reads like this: (dose: 6.0 mg/kg/injection, schedule: Q01DX009 (ip), vehicle: Klucel (hydroxypropylcellulose) (HPC)) 88 % of control; (dose: 6.25 mg/kg/injection, schedule: Q01DX009 (ip), vehicle: saline) 105 % of control; (dose: 7.0 mg/kg/injection, schedule: Q01DX Z (ip), vehicle: methylcellulose (MC)) 100 % of control; (dose: 11.0 mg/kg/injection, schedule: Q01DX Z (ip), vehicle: methylcellulose (MC)) 112 % of control; (dose: 12.0 mg/kg/injection, schedule: Q01DX009 (ip), vehicle: Klucel (hydroxypropylcellulose) (HPC)) 95 % of control; (dose: 12.5 mg/kg/injection, schedule: Q01DX009 (ip), vehicle: saline) 107 % of control. In addition, the T/C (dose: 15.0 mg/kg/injection, schedule: Q01DX Z (ip), vehicle: methylcellulose (MC)) is 116 % of control; the T/C (dose: 15.0 mg/kg/injection, schedule: Q04DX003 (ip), vehicle: Klucel (hydroxypropylcellulose) (HPC)) is 107 % of control; the T/C (dose: 16.0 mg/kg/injection, schedule: Q01DX Z (ip), vehicle: methylcellulose (MC)) was 120 % of control; the T/C (dose: 24.0 mg/kg/injection, schedule: Q01DX009 (ip), vehicle: Klucel (hydroxypropylcellulose) (HPC)) was 101 % of control; the T/C (dose: 24.0 mg/kg/injection, schedule: Q01DX Z (ip), vehicle: methylcellulose (MC)) was 88 % of control; the T/C (dose: 25.0 mg/kg/injection, schedule: Q01DX009 (ip), vehicle: saline) is 113 % of control. Further, the T/C by setting is: (dose: 30.0 mg/kg/injection, schedule: Q01DX Z (ip), vehicle: methylcellulose (MC)) 101 % of control; (dose: 30.0 mg/kg/injection, schedule: Q04DX003 (ip), vehicle: Klucel (hydroxypropylcellulose) (HPC)) 96 % of control; (dose: 37.5 mg/kg/injection, schedule: Q04DX003 (ip), vehicle: Klucel (hydroxypropylcellulose) (HPC)) 97 % of control; (dose: 45.0 mg/kg/injection, schedule: Q01DX001 (ip), vehicle: saline) 94 % of control and 102 % of control; (dose: 48.0 mg/kg/injection, schedule: Q01DX009 (ip), vehicle: Klucel (hydroxypropylcellulose) (HPC)) 120 % of control; under setting [4], 107 % of control. Further, the T/C runs as follows: (dose: 60.0 mg/kg/injection, schedule: Q04DX003 (ip), vehicle: Klucel (hydroxypropylcellulose) (HPC)) 100 % of control; (dose: 65.0 mg/kg/injection, schedule: Q01DX001 (ip), vehicle: saline) 96 % of control and 124 % of control; (dose: 75.0 mg/kg/injection, schedule: Q01DX009 (ip), vehicle: saline) 92 % of control; (dose: 75.0 mg/kg/injection, schedule: Q04DX003 (ip), vehicle: Klucel (hydroxypropylcellulose) (HPC)) 114 % of control; (dose: 100.0 mg/kg/injection, schedule: Q01DX001 (ip), vehicle: carboxymethylcellulose (CMC)) 105 % of control; under setting [5], 96 % of control. The T/C was 104 % of control (dose: 120.0 mg/kg/injection, schedule: Q04DX003 (ip), vehicle: Klucel (hydroxypropylcellulose) (HPC)); 93 % of control and 107 % of control (dose: 150.0 mg/kg/injection, schedule: Q01DX001 (ip), vehicle: saline); 111 % of control (dose: 150.0 mg/kg/injection, schedule: Q04DX003 (ip), vehicle: Klucel (hydroxypropylcellulose) (HPC)); 110 % of control (dose: 200.0 mg/kg/injection, schedule: Q01DX001 (ip), vehicle: carboxymethylcellulose (CMC)); 91 % of control (dose: 240.0 mg/kg/injection, schedule: Q04DX003 (ip), vehicle: Klucel (hydroxypropylcellulose) (HPC)); 100 % of control (dose: 300.0 mg/kg/injection, schedule: Q04DX003 (ip), vehicle: Klucel (hydroxypropylcellulose) (HPC)). The T/C (dose: 400.0 mg/kg/injection, schedule: Q01DX001 (ip), vehicle: carboxymethylcellulose (CMC)) is 102 % of control.

With `Clc1ccccc1/C=N\N=C(N/N=C\c1ccccc1Cl)N/N=C/c1ccccc1Cl`, the T/C (dose: 15.0 mg/kg/injection, schedule: Q01DX Z (ip), vehicle: carboxymethylcellulose (CMC)) was 103 % of control; the T/C (dose: 30.0 mg/kg/injection, schedule: Q01DX Z (ip), vehicle: carboxymethylcellulose (CMC)) was 97 % of control; the T/C (dose: 60.0 mg/kg/injection, schedule: Q01DX Z (ip), vehicle: carboxymethylcellulose (CMC)) was 98 % of control; the T/C (dose: 120.0 mg/kg/injection, schedule: Q01DX Z (ip), vehicle: carboxymethylcellulose (CMC)) is 97 % of control; the T/C (dose: 150.0 mg/kg/injection, schedule: Q01DX Z (oral), vehicle: carboxymethylcellulose (CMC)) is 101 % of control; the T/C (dose: 300.0 mg/kg/injection, schedule: Q01DX Z (oral), vehicle: carboxymethylcellulose (CMC)) is 101 % of control. The T/C by setting is: (dose: 600.0 mg/kg/injection, schedule: Q01DX Z (oral), vehicle: carboxymethylcellulose (CMC)) 101 % of control; (dose: 1200.0 mg/kg/injection, schedule: Q01DX Z (oral), vehicle: carboxymethylcellulose (CMC)) 100 % of control.

For `C=CSCCCC(C)=O`, the T/C reads like this: (dose: 100.0 mg/kg/injection, schedule: Q01DX001 (ip), vehicle: Klucel (hydroxypropylcellulose) (HPC)) 97 % of control; (dose: 200.0 mg/kg/injection, schedule: Q01DX001 (ip), vehicle: Klucel (hydroxypropylcellulose) (HPC)) 103 % of control; (dose: 400.0 mg/kg/injection, schedule: Q01DX001 (ip), vehicle: Klucel (hydroxypropylcellulose) (HPC)) 101 % of control.

`O=[N+]([O-])c1cc(Cl)ccc1S(=O)(=O)c1ccccc1`: the T/C is 99 % of control (dose: 50.0 mg/kg/injection, schedule: Q01DX009 (ip), vehicle: Klucel (hydroxypropylcellulose) (HPC)); 99 % of control (dose: 100.0 mg/kg/injection, schedule: Q01DX009 (ip), vehicle: Klucel (hydroxypropylcellulose) (HPC)); 108 % of control (dose: 200.0 mg/kg/injection, schedule: Q01DX009 (ip), vehicle: Klucel (hydroxypropylcellulose) (HPC)).

Take `O=[N+]([O-])Nc1ccnnc1`: the T/C is 94 % of control under setting [5], 96 % of control under setting [6] and 96 % of control under setting [7].

In the case of `Cc1cc(C(=O)O)ccc1S(=O)(=O)F`, the T/C is 96 % of control (dose: 25.0 mg/kg/injection, schedule: Q01DX009 (ip), vehicle: saline with Tween-80); 102 % of control (dose: 50.0 mg/kg/injection, schedule: Q01DX009 (ip), vehicle: saline with Tween-80); 92 % of control and 100 % of control (dose: 100.0 mg/kg/injection, schedule: Q01DX009 (ip), vehicle: saline with Tween-80).

Consider `O=C(/C=N/O)c1cccnc1`, for which, under “dose: 100.0 mg/kg/injection, schedule: Q04DX003 (ip), vehicle: saline with Tween-80”, the T/C is 97 % of control.
